One may read the melting point as the temperature of the solid-liquid transition.

Each structure is given as a SMILES string.

`CCCS(=O)(=O)Nc1ccc(-c2c(C#N)c3ccc(N4CCCCC4)cc3n2CC2CC2)cc1` [Compound 2963] gave a melting point of 189 to 194 °C. With `CCCS(=O)(=O)Nc1ccc(-c2c(C#N)c3ccc(Oc4ncccc4C#N)cc3n2CC2CC2)c(Cl)c1` [Compound 3306] the figure was 218 to 220 °C; with `C[C@@H](OC(=O)Nc1ccc(-c2c(C#N)c3ccc(-c4ncccc4C#N)cc3n2C2CCC2)cc1)C1CC1` [Compound 3243], 183 to 185 °C; with `CC(C)NS(=O)(=O)Nc1ccc(-c2c(C#N)c3ccc(Oc4nccnc4Cl)cc3n2C2CC2)cc1` [Compound 2947], 130 °C (dec.). The compound `CN(C(=O)Oc1ccc(-c2c(C#N)c3ccc(OC4CCOCC4)cc3n2C2CCC2)cc1)c1ccccc1` [Compound 3112] yielded a melting point of 167 to 169 °C. Regarding `CC(C)OC(=O)Nc1ccc(-c2c(C#N)c3ccc(OC4COCOC4)cc3n2C2CCC2)cc1` [Compound 2894], the melting point is 208 to 210 °C. Consider `N#Cc1c(-c2ccc(NS(=O)(=O)C3CC3)cc2)n(C2CCC2)c2cc(OC3CCOCC3)ccc12` [Compound 2747], for which the melting point lay within 202 to 204 °C. Compound `COCCOc1ccc2c(C#N)c(-c3ccc(NC(=O)OC4CCC4)cc3)n(C(C)C)c2c1` [Compound 2609] came in with a melting point of 165 to 166 °C. `CC(C)n1c(-c2ccc(NC(=O)O[C@H](C)C3CC3)cc2)c(C#N)c2ccc(OC3CCOCC3)cc21` [Compound 2741]: the melting point lay within 208 to 210 °C. Then `COCCCNC(=O)c1ccc2c(C#N)c(-c3ccc(NC(=O)O[C@H](C)C4CC4)cc3)n(C3CCC3)c2c1` [Compound 2792], with 90 to 94 °C. In the case of `CCOc1ccc2c(C#N)c(-c3ccc(S(=O)(=O)N4CC[C@H](O)C4)cc3)n(C3CCC3)c2c1` [Compound 3085], the melting point is 195 to 196 °C. `N#Cc1c(-c2ccc(NS(=O)(=O)C3CC3)cc2)n(C2CCC2)c2cc(N3CCOCC3)ccc12` [Compound 2802] had a melting point of 222 to 224 °C. The compound `CCn1c(-c2ccc(NC(=O)C3CC3)cc2)c(C#N)c2ccc(OCCNCCN3CCOCC3)cc21` [Compound 1394] yielded a melting point of 96.5 to 100.6 °C.

Turning to `N#Cc1c(-c2ccc(Nc3nc(C(F)(F)F)cs3)cc2)n(C2CCC2)c2cc(Oc3ncccn3)ccc12` [Compound 3189], the melting point is 241 to 245 °C.

The compound `CCOc1ccc2c(I)c(-c3ccc(NC(=O)OC(C)C)cc3)n(CC3CC3)c2c1` [compound 2634, [4-(1-cyclopropylmethyl-6-ethoxy-3-iodo-1H-indol-2-yl)-phenyl]-carbamic acid isopropyl ester] registered a melting point of 135 to 140 °C. `C[C@H](OC(=O)Nc1ccc(-c2c(C#N)c3cc(OCCCn4cncn4)ccc3n2C2CCC2)cc1)c1ccccc1` [Compound 2733] showed a melting point of 206 to 208 °C. Then `N#Cc1c(-c2ccc(NS(=O)(=O)NCC3CC3)cc2)n(C2CCC2)c2cc(OC3CCOCC3)ccc12` [Compound 2837], with 210 to 212 °C; and `CCCS(=O)(=O)Nc1ccc(-c2c(C#N)c3ccc(Oc4ncccc4Br)cc3n2CC2CC2)c(C)c1` [Compound 3029], with 110 to 113 °C; and `CCOc1ccc2c(C#N)c(-c3ccc(S(=O)(=O)N4CCC[C@@H]4CO)cc3)n(C3CCC3)c2c1` [Compound 2690], with 170 to 172 °C.

As for `CC(C)Nc1ccc(-c2c(C#N)c3ccc(Oc4ncccc4Cl)cc3n2C2CC2)cc1` [Compound 2951], the melting point lay within 196 to 197 °C.

As for `C[C@@H](OC(=O)Nc1ccc(-c2c(C#N)c3ccc(N4CCCC4)cc3n2C2CCC2)cc1)C1CC1` [Compound 2985], the melting point lay in the range of 205 to 210 °C. On to `C[C@@H](OC(=O)Nc1ccc(-c2c(C#N)c3ccc(OC(F)F)cc3n2C2CCC2)cc1)C(F)(F)F` [Compound 2880], for which the melting point lay in the range of 161 to 162 °C. `CCSc1ccc2c(C#N)c(-c3ccc(NC(=O)OC(C)C)cc3)n(C3CCC3)c2c1` [Compound 2713] yielded a melting point of 150 to 152 °C. As to `C[C@@H](OC(=O)Nc1ccc(-c2c(C#N)c3ccc(N4CCCC4=O)cc3n2C2CCC2)cc1)C1CC1` [Compound 3332], the melting point is 140 °C (dec.).

Regarding `COCCOc1ccc2c(C#N)c(-c3ccc(C(=O)N[C@H](C)c4ccc(F)cc4)cc3)n(C3CCC3)c2c1` [Compound 3132], the melting point was in the range of 169 to 170 °C.

As to `CCCS(=O)(=O)Nc1ccc(-c2c(C#N)c3ccc(Oc4nccc(C)n4)cc3n2C2CCC2)cc1` [Compound 2902], the melting point was in the range of 223 to 227 °C. For the compound `CCCN(CCC)C(=O)c1ccc2c(C#N)c(-c3ccc(NC(=O)O[C@H](C)C4CC4)cc3)n(C3CCC3)c2c1` [Compound 2271], the melting point lay within 160 to 163 °C.

For the compound `CC(C)CS(=O)(=O)Nc1ccc(-c2c(C#N)c3ccc(Oc4nccnc4C#N)cc3n2CC2CC2)cc1` [Compound 3225], the melting point was in the range of 194 to 197 °C. Regarding `CCn1c(-c2ccc(NS(=O)(=O)CC)cc2)c(C#N)c2ccc(C(=O)N3CCOCC3)cc21` [Compound 1361], the melting point lay in the range of 238 to 241 °C.

Compound `CC[S+]([O-])c1ccc2c(C#N)c(-c3ccc(NC(=O)OC(C)C)cc3)n(C3CCC3)c2c1` (centres unmarked) [Compound 2714] came in with a melting point of 165 to 168 °C. `N#Cc1c(-c2ccc(NS(=O)(=O)C3CC3)cc2)n(C2CCC2)c2cc(N3CCCC3)ccc12` [Compound 2960] had a melting point of 258 to 260 °C.

Compound `N#Cc1c(-c2ccc(Nc3nc(-c4ccc(F)cc4)cs3)cc2)n(C2CCC2)c2cc(OC3CCOCC3)ccc12` [Compound 3153] returned a melting point of 269 to 271 °C. Regarding `CCCS(=O)(=O)Nc1ccc(-c2c(C#N)c3ccc(N4CCOCC4)cc3n2CC2CC2)cc1` [Compound 2890], the melting point fell in the range of 186 to 189 °C. With `N#Cc1c(-c2ccc(Nc3nc(-c4ccc(F)cc4)cs3)cc2)n(C2CCC2)c2cc(OCCF)ccc12` [Compound 3206], the melting point was in the range of 234 to 236 °C.

`CCCS(=O)(=O)Nc1ccc(-c2c(C#N)c3ccc(Oc4nccnc4C#N)cc3n2C2CC2)c(C)c1` [Compound 3305]: the melting point lay in the range of 225 to 228 °C. For `C[C@@H](OC(=O)Nc1ccc(-c2c(C#N)c3ccc(-c4ncccc4C(F)(F)F)cc3n2C2CCC2)cc1)C1CC1` [Compound 2997], the melting point is 90 to 98 °C. The compound `C[C@H](NS(=O)(=O)Nc1ccc(-c2c(C#N)c3ccc(Oc4ncccc4Br)cc3n2C2CCC2)cc1)C1CC1` [Compound 3020] registered a melting point of 118 to 124 °C.

For the compound `COCCOc1ccc2c(C#N)c(-c3ccc(C(=O)N[C@@H](C)c4ccccc4)cc3)n(C3CCC3)c2c1` [Compound 3131], the melting point lay in the range of 149 to 152 °C. `CC(C)OC(=O)Nc1ccc(-c2c(C#N)c3ccc(N4CCOCC4)cc3n2C(C)C)cc1` [Compound 2934] registered a melting point of 192 to 195 °C. With `C[C@@H](OC(=O)Nc1ccc(-c2c(C#N)c3ccc(N4CCOCC4)cc3n2C2CC2)cc1)C1CC1` [Compound 2857], the melting point lay within 176 to 179 °C. `CC(C)S(=O)(=O)Nc1ccc(-c2c(C#N)c3ccc(OC4CCOCC4)cc3n2C2CCC2)cc1` [Compound 2748] came in with a melting point of 211 to 213 °C. Compound `CCn1c(-c2ccc3c(ccn3S(=O)(=O)CC)c2)c(C#N)c2ccc(OC)cc21` [compound 1331] had a melting point of 157 to 160 °C. Then `CCS(=O)(=O)Nc1ccc(-c2c(C#N)c3ccc(N4CCCCC4)cc3n2C2CCC2)cc1` [Compound 2974], with 203 to 205 °C; and `CCCNC(=O)Nc1ccc(-c2c(C#N)c3ccc(OCc4csc(C)n4)cc3n2CC)cc1` [Compound 1415], with 220 to 222 °C; and `Cc1cccc(Oc2ccc3c(c2)c(C#N)c(-c2ccc(NC(=O)O[C@H](C)C4CC4)cc2)n3C2CCC2)n1` [Compound 3257], with 205 to 208 °C. As for `CCOc1ccc2c(C#N)c(-c3ccc(NC(=O)O[C@@H](C)c4ccncc4)cc3)n(C3CCC3)c2c1` [Compound 2706], the melting point was 180 to 183 °C. Then `C[C@@H](OC(=O)Nc1ccc(-c2c(C#N)c3ccc(Oc4nccnc4C#N)cc3n2C2CC2)cc1)C1CC1` [Compound 3262], with 223 °C (dec.). As to `Cc1nccc(Oc2ccc3c(C#N)c(-c4ccc(NC(=O)NC(C)C)cc4)n(C4CCC4)c3c2)n1` [Compound 2761], the melting point fell in the range of 240 to 245 °C.

Compound `CCS(=O)(=O)Nc1ccc(-c2c(C#N)c3ccc(N4CCCC4)cc3n2C2CCC2)cc1` [Compound 2962] registered a melting point of 244 to 250 °C. For `C[C@@H](OC(=O)Nc1ccc(-c2c(C#N)c3ccc(OC(=O)NCCc4ccccc4)cc3n2C2CCC2)cc1)C1CC1` [Compound 3173], the melting point lay in the range of 203 to 206 °C.

Turning to `N#Cc1nccnc1Oc1ccc2c(C#N)c(-c3ccc(NS(=O)(=O)NCC4CC4)cc3)n(C3CC3)c2c1` [Compound 3211], the melting point was 189 to 191 °C. For the compound `CCn1c(-c2ccc3c(c2)CCC(=O)N3)c(C#N)c2ccc(OC(C)C)cc21` [Compound 3227], the melting point was in the range of 148 to 150 °C. The compound `CCOc1ccc2c(C#N)c(-c3ccc(NC(=O)NCCCOC)cc3)n(C3CCC3)c2c1` [Compound 1409] came in with a melting point of 152 to 155 °C. With `CC(C)S(=O)(=O)Nc1ccc(-c2c(C#N)c3ccc(N4CCOCC4)cc3n2C2CCC2)cc1` [Compound 2801] the figure was 220 °C; with `CCn1c(-c2ccc(N3CCCS3(=O)=O)cc2)c(C#N)c2ccc(N3CCOCC3)cc21` [Compound 2926], 247 to 248 °C; with `C[C@@H](OC(=O)Nc1ccc(-c2c(C#N)c3ccc(N4CCOCC4)cc3n2C2CCC2)cc1)C(F)(F)F` [Compound 2864], 220 to 222 °C.

In turn, `Cc1cc(-c2c(C#N)c3ccc(OC4CCOCC4)cc3n2C2CCC2)ccc1NC(=O)OC(C)C` [Compound 2889] displayed a melting point of 129 to 130 °C. As to `CCCS(=O)(=O)Nc1ccc(-c2c(C#N)c3ccc(-c4ncccc4Cl)cc3n2C2CCC2)cc1` [Compound 2972], the melting point lay in the range of 235 to 237 °C. The compound `N#Cc1c(-c2ccc(Nc3ncccn3)cc2)n(CC2CC2)c2cc(OCCF)ccc12` [Compound 3251] had a melting point of 212 to 213 °C.

The values are drawn from US7772271B2 (priority 2004, dated 2010).
